We go through ten molecules from patent US20260374773A1, “MULTI-CYCLIC IRAK AND FLT3 INHIBITING COMPOUNDS AND USES THEREOF” (CHILDREN'S HOSPITAL MEDICAL CENTER, priority 2022, published 2026).

Assay [1] deals with NF-κB. Briefly: NF-κB SEAP reporter assay in THP-1-Blue NF-κB cells, Pam3CSK4 stimulated. Type of assay: cell-based. The conditions noted are these: THP-1-Blue cells, 1 ng/ml Pam3CSK4, 24 h, read-out: NF-κB Pam3SCK4 IC50. The procedure:
(§1) THP-1-Blue NF-κB cells (InvivoGen) carrying a stable integrated NF-κB-inducible secreted embryonic alkaline phosphatase (SEAP) reporter construct were plated at a concentration of 1×10^5 cells per well. The cells were stimulated with Pam3CSK4 (1 ng/ml) or hIL1B (1 ng/ml). After 10-20 minutes, the cells were then treated with vehicle (DMSO) or serial dilutions of the test compounds (10 doses tested for each test compound, with a […] starting at 1 μM or 3 μM) with a final volume of 200 μL for 24 hours at 37 °C. After 24 hours, the cells were centrifuged and 20 μL supernatant was incubated with 180 μL QUANTI-Blue reagent at 37 °C for 30-60 minutes. The levels of NF-κB-induced was measured in a microplate reader at 620 nm.
as §1, with “1 mM” for “1 μM”, “3 mM)” for “3 μM)”, “200 mL” for “200 μL”, “20 mL” for “20 μL”, “180 mL” for “180 μL”, “NF-κB-induced gene expression were” for “NF-κB-induced was”

Assay [2] has as its target T1, FLT3 (Homo sapiens, UniProt P36888).
T1 sequence (P36888 27-993): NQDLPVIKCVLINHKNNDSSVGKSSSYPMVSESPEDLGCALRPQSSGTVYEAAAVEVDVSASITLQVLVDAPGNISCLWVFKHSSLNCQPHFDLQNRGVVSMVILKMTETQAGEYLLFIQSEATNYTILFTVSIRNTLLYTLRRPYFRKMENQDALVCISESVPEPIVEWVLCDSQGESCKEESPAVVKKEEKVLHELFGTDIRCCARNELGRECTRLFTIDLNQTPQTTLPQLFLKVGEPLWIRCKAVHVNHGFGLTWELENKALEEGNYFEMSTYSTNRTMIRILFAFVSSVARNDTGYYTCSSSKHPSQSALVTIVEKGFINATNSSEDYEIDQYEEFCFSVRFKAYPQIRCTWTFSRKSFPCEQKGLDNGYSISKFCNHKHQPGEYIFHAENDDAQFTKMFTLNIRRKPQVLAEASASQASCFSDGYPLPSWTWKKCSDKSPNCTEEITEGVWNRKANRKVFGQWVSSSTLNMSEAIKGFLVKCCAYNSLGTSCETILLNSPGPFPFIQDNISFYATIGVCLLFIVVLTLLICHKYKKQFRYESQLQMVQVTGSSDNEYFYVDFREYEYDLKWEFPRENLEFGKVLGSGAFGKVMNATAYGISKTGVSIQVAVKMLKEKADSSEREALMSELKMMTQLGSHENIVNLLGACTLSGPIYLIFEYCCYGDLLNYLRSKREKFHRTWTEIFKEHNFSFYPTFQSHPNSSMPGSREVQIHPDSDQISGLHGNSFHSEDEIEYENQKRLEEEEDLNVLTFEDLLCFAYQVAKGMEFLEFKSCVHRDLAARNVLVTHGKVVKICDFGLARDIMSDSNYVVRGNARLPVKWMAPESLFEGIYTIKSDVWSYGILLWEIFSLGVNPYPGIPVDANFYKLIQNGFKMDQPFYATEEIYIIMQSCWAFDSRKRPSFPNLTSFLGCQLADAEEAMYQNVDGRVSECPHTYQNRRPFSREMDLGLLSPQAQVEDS
Briefly: RBC HotSpot kinase inhibition assay, FLT3. Type of assay: biochemical. The conditions noted are these: isolated kinase, 33P-ATP, 2 h. A digest of the protocol:
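Isolated kinases, possibly truncated or lacking regulatory receptor domains, in 20 mM Hepes pH 7.5, 10 mM MgCl2, 1 mM EGTA, 0.01% Brij35, 2 mM DTT, 1% DMSO with substrate and cofactors. Compound preincubated 20 min, then ^33P-ATP added; 2 h at room temperature, read by P81 filter binding.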

pIC50: −log10 of the molar value. Read-outs that look alike come from different tables or passages of the source.

With `COc1cn2ncc(-c3ccnc(N[C@H]4CNC[C@@H]4F)n3)c2nc1C1CC1` [Compound 8a, 4-(5-cyclopropyl-6-methoxypyrazolo[1,5-a]pyrimidin-3-yl)-N-((3S,4S)-4-fluoropyrrolidin-3-yl)pyrimidin-2-amine], the pIC50 in assay [1] (Table 21) is 7.14; in assay [2] (Table 17), greater than 9.30.
On the same counts, the results for `COc1cn2ncc(-c3nc(N[C@H]4CNCC[C@@H]4F)ncc3F)c2nc1C(C)(C)O` [Compound 6a, 2-(3-(5-fluoro-2-(((3S,4S)-4-fluoropiperidin-3-yl)amino)pyrimidin-4-yl)-6-methoxypyrazolo[1,5-a]pyrimidin-5-yl)propan-2-ol] are 7.24 and greater than 9.30.
On to `COc1cn2ncc(-c3nc(N[C@H]4CNCC[C@@H]4F)ncc3F)c2nc1C1CC1` [Compound 15a, 4-(5-cyclopropyl-6-methoxypyrazolo[1,5-a]pyrimidin-3-yl)-5-fluoro-N-((3S,4S)-4-fluoropiperidin-3-yl)pyrimidin-2-amine], for which the pIC50 was 8.30 in assay [1] (Table 21) and 9.15 in assay [2] (Table 17).
Take `COc1cn2ncc(-c3nc(N[C@H]4CNCC[C@@H]4F)c(F)cc3F)c2nc1C1CC1` [Compound 22, 6-(5-cyclopropyl-6-methoxypyrazolo[1,5-a]pyrimidin-3-yl)-3,5-difluoro-N-((3S,4S)-4-fluoropiperidin-3-yl)pyridin-2-amine]: the pIC50 in assay [1] (Table 15) is 8.15; in assay [2] (Table 11), greater than 9.30.
In the case of `COc1cn2ncc(-c3cncc(N[C@H]4CNCC[C@@H]4F)n3)c2nc1C1CC1` [Compound 12a, 6-(5-cyclopropyl-6-methoxypyrazolo[1,5-a]pyrimidin-3-yl)-N-((3S,4S)-4-fluoropiperidin-3-yl)pyrazin-2-amine], the pIC50 in assay [1] (Table 21) is 7.08; in assay [2] (Table 17), greater than 9.30.
Turning to `COc1cn2ncc(-c3nc(N[C@H]4CNCC[C@@H]4F)c(F)cc3F)c2nc1C(C)(C)O` [Compound 13, 2-(3-(3,5-difluoro-6-(((3S,4S)-4-fluoropiperidin-3-yl)amino)pyridin-2-yl)-6-methoxypyrazolo[1,5-a]pyrimidin-5-yl)propan-2-ol], the results for the pIC50 in assay [1] (Table 15) and in assay [2] (Table 11) were 7.00 and greater than 9.30, respectively.
Turning to `COc1cn2ncc(-c3ccnc(N[C@H]4CNCC[C@@H]4F)n3)c2nc1C1CC1` [Compound 7a, 4-(5-cyclopropyl-6-methoxypyrazolo[1,5-a]pyrimidin-3-yl)-N-((3S,4S)-4-fluoropiperidin-3-yl)pyrimidin-2-amine], the pIC50 in assay [1] (Table 21) is 7.26; in assay [2] (Table 17), greater than 9.30.
For `COc1cn2ncc(-c3nc(N[C@H]4CNC[C@@H]4F)ncc3F)c2nc1C1CC1` [Compound 13a, 4-(5-cyclopropyl-6-methoxypyrazolo[1,5-a]pyrimidin-3-yl)-5-fluoro-N-((3S,4S)-4-fluoropyrrolidin-3-yl)pyrimidin-2-amine], the results for the pIC50 in assay [1] (Table 21) and in assay [2] (Table 17) were 7.72 and greater than 9.30, respectively.
As to `COc1cn2ncc(-c3ccc(F)c(N[C@H]4CNCC[C@@H]4F)n3)c2nc1C1CC1` [Compound 6, 6-(5-cyclopropyl-6-methoxypyrazolo[1,5-a]pyrimidin-3-yl)-3-fluoro-N-((3S,4S)-4-fluoropiperidin-3-yl)pyridin-2-amine], the pIC50 in assay [1] (Table 15) is 6.52; in assay [2] (Table 11) it was greater than 9.30.
The corresponding values for `COc1cn2ncc(-c3nc(N[C@@H]4CCCNC4)c(F)cc3F)c2nc1C(C)(C)O` [Compound 11, (R)-2-(3-(3,5-difluoro-6-(piperidin-3-ylamino)pyridin-2-yl)-6-methoxypyrazolo[1,5-a]pyrimidin-5-yl)propan-2-ol] are 6.89 and greater than 9.30.
